Data published in ChEMBL document CHEMBL5537166, “PROTACs Targeting BRM (SMARCA2) Afford Selective In Vivo Degradation over BRG1 (SMARCA4) and Are Active in BRG1 Mutant Xenograft Tumor Models” (J Med Chem, 2024).
The source made the active and inactive calls. The calls are words filed in the database; no cut-off is given here.

Columns and labels:
HCC2302 [1] = test: Antitumor activity against human BRM-dependent HCC2302 cells xenografted in CD-1 mouse assessed as suppression of KRT80 mRNA level at 20 mg/kg, iv administered twice weekly for 7 times for 21 days and measured after 24 hrs post dose; assay type: functional; conditions: time 22 day
Mus musculus [2] = test: In-vivo PROTAC activity at BRG1 /VHL in CD-1 mouse xenografted with human HCC2302 cells assessed as reduction in BRG1 level in tumor at 20 mg/kg, iv administered twice weekly for 7 times for 21 days and measured after 24 hrs post dose by Western blot analysis; assay type: functional; parameters: scale not given: the % may be the effect or the level left; conditions: time 22 day
[3] = Toxicity in CD-1 mouse xenografted with BRM-dependent human HCC2302 cells assessed as body weight loss at 10 mg/kg, ip administered once daily for 7 days; assay type: organism-based; conditions: in vivo, 168 h, time 7 day
Mus musculus [4] = test: In-vivo PROTAC activity at BRM/VHL in CD-1 mouse xenografted with Murine stromal cell line at 20 mg/kg, iv measured for 96 hrs; assay type: functional
HCC2302 [5] = test: Antitumor activity against human BRM-dependent HCC2302 cells xenografted in CD-1 mouse assessed as tumor growth inhibition at 20 mg/kg, ip administered twice per week for 21 days; assay type: functional, organism-based; conditions: time 21.0 day
[6] = Initial plasma concentration in CD-1 mouse at 10 mg/kg, iv measured for 24 hrs; assay type: ADME, organism-based
[7] = Drug concentration in mouse tumor at 20 mg/kg, ip measured for 96 hrs; assay type: ADME, organism-based, Neoplasm; conditions: read-out: Ct
HCC2302 [8] = test: Antitumor activity against human BRM-dependent HCC2302 cells xenografted in CD-1 mouse assessed as suppression of KRT80 mRNA level at 30 mg/kg, iv administered 7 times and measured after 96 hrs; assay type: functional
Mus musculus [9] = test: In-vivo PROTAC activity at BRG1 /VHL in CD-1 mouse xenografted with human HCC2302 cells assessed as reduction in BRG1 level in tumor at 30 mg/kg, iv administered 7 times and measured after 96 hrs by Western blot analysis; assay type: functional; parameters: scale not given: the % may be the effect or the level left
[10] = Drug concentration in mouse plasma measured for 24 hrs; assay type: ADME, cell-free
Mus musculus [11] = test: In-vivo PROTAC activity at BRM/VHL in CD-1 mouse xenografted with human HCC2302 cells assessed as reduction in BRM level in tumor at 20 mg/kg, iv administered twice weekly for 7 times for 21 days and measured after 24 hrs post dose by Western blot analysis; assay type: functional; parameters: scale not given: the % may be the effect or the level left; conditions: time 22 day
[12] = Clearance in CD-1 mouse at 30 mg/kg, iv measured for 24 hrs; assay type: ADME, organism-based; conditions: in vivo
HCC2302 [13] = test: Antitumor activity against human BRM-dependent HCC2302 cells xenografted in CD-1 mouse assessed as suppression of KRT80 mRNA level at 10 mg/kg, iv administered twice weekly for 7 times for 21 days and measured after 24 hrs post dose; assay type: functional; conditions: time 22 day
Mus musculus [14] = test: In-vivo PROTAC activity at BRM/VHL in CD-1 mouse xenografted with human HCC2302 cells at 20 mg/kg, iv measured for 96 hrs; assay type: functional
HCC2302 [15] = test: Antitumor activity against human BRM-dependent HCC2302 cells xenografted in CD-1 mouse at 30 mg/kg, iv administered twice per week for 11 days; assay type: functional, organism-based; conditions: time 11.0 day
Mus musculus [16] = test: In-vivo PROTAC activity at BRM/VHL in CD-1 mouse xenografted with human HCC2302 cells assessed as reduction in BRM level in tumor at 10 mg/kg, iv administered twice weekly for 7 times for 21 days and measured after 24 hrs post dose by Western blot analysis; assay type: functional; parameters: scale not given: the % may be the effect or the level left; conditions: time 22 day
Mus musculus [17] = test: In-vivo PROTAC activity at BRG1 /VHL in CD-1 mouse xenografted with human HCC2302 cells assessed as reduction in BRG1 level in tumor at 10 mg/kg, iv administered twice weekly for 7 times for 21 days and measured after 24 hrs post dose by Western blot analysis; assay type: functional; parameters: scale not given: the % may be the effect or the level left; conditions: time 22 day
[18] = Volume of distribution in CD-1 mouse at 10 mg/kg, iv measured for 24 hrs; assay type: ADME, organism-based; conditions: in vivo
[19] = Volume of distribution in CD-1 mouse at 30 mg/kg, iv measured for 24 hrs; assay type: ADME, organism-based; conditions: in vivo
NCI-H1944 = test: Antiproliferative activity against BRM-dependent human NCI-H1944 cells assessed as growth inhibition incubated for 7 days by celltiter glo 2.0 assay; assay type: functional; conditions: NCI-H1944, 168 h, time 7 day
[20] = AUClast in CD-1 mouse at 10 mg/kg, iv measured for 24 hrs; assay type: ADME, organism-based; conditions: in vivo
HCC2302 [21] = test: Antitumor activity against human BRM-dependent HCC2302 cells xenografted in CD-1 mouse assessed as suppression of PLAU mRNA level at 10 mg/kg, iv administered twice weekly for 7 times for 21 days and measured after 24 hrs post dose; assay type: functional; conditions: time 22 day
HCC2302 [22] = test: Antitumor activity against human BRM-dependent HCC2302 cells xenografted in CD-1 mouse assessed as tumor growth inhibition at 30 mg/kg, iv administered 7 times and measured after 96 hrs; assay type: functional; conditions: read-out: TGI
[23] = Toxicity in CD-1 mouse xenografted with BRM-dependent human HCC2302 cells assessed as animal death at 10 mg/kg, ip administered once daily for 7 days; assay type: organism-based; conditions: in vivo, 168 h, time 7 day
[24] = AUClast in CD-1 mouse at 30 mg/kg, iv measured for 24 hrs; assay type: ADME, organism-based; conditions: in vivo
HCC2302 [25] = test: Antitumor activity against human BRM-dependent HCC2302 cells xenografted in CD-1 mouse assessed as tumor growth inhibition at 10 mg/kg, iv administered twice weekly for 7 times for 21 days and measured after 24 hrs post dose; assay type: functional; conditions: HCC2302, 528 h, time 22 day, read-out: TGI
Mus musculus [26] = test: In-vivo PROTAC activity at BRM/VHL in CD-1 mouse xenografted with human HCC2302 cells assessed as reduction in BRM level in tumor at 30 mg/kg, iv administered 7 times and measured after 96 hrs by Western blot analysis; assay type: functional; parameters: scale not given: the % may be the effect or the level left
Calu-6 = test: Antiproliferative activity against human Calu-6 cells assessed as growth inhibition incubated for 7 days by celltiter glo 2.0 assay; assay type: functional; conditions: Calu-6, 168 h, time 7 day
[27] = Initial plasma concentration in CD-1 mouse at 30 mg/kg, iv measured for 24 hrs; assay type: ADME, organism-based
HCC2302 [28] = test: Antitumor activity against human BRM-dependent HCC2302 cells xenografted in CD-1 mouse assessed as tumor growth inhibition at 20 mg/kg, iv administered twice weekly for 7 times for 21 days and measured after 24 hrs post dose; assay type: functional; conditions: HCC2302, 528 h, time 22 day, read-out: TGI
[29] = Half life in CD-1 mouse at 30 mg/kg, iv measured for 24 hrs; assay type: ADME, organism-based; conditions: in vivo
[30] = Half life in CD-1 mouse at 10 mg/kg, iv measured for 24 hrs; assay type: ADME, organism-based; conditions: in vivo
HCC2302 [31] = test: Antitumor activity against human BRM-dependent HCC2302 cells xenografted in CD-1 mouse assessed as suppression of PLAU mRNA level at 30 mg/kg, iv administered 7 times and measured after 96 hrs; assay type: functional
[32] = Toxicity in CD-1 mouse xenografted with BRM-dependent human HCC2302 cells assessed as body weight loss at 20 mg/kg, ip administered twice per week for 21 days; assay type: organism-based; conditions: in vivo, 504 h, time 21 day
[33] = Half life in mouse at 1 mg/kg, iv measured upto 60 mins by LC-MS/MS analysis; assay type: ADME, organism-based; conditions: in vivo
HCC2302 [34] = test: Antitumor activity against human BRM-dependent HCC2302 cells xenografted in CD-1 mouse assessed as suppression of PLAU mRNA level at 20 mg/kg, iv administered twice weekly for 7 times for 21 days and measured after 24 hrs post dose; assay type: functional; conditions: time 22 day
[35] = Clearance in CD-1 mouse at 10 mg/kg, iv measured for 24 hrs; assay type: ADME, organism-based; conditions: in vivo
[36] = Plasma protein binding in mouse incubated for 15 mins by LC-MS/MS analysis; assay type: ADME, cell-free; conditions: read-out: PPB (converted)
HCC2302 [37] = test: Antitumor activity against human BRM-dependent HCC2302 cells xenografted in CD-1 mouse assessed as tumor growth inhibition at 10 mg/kg, iv administered twice per week for 21 days; assay type: functional, organism-based; conditions: time 21.0 day
[38] = Clearance in mouse at 1 mg/kg, iv measured upto 60 mins by LC-MS/MS analysis; assay type: ADME, organism-based; conditions: in vivo, 1 h

What does the source list for `Cc1ncsc1-c1ccc([C@H](C)NC(=O)[C@@H]2C[C@@H](O)CN2C(=O)[C@@H](c2cc(N3CCC(CN4CCC(O[C@H]5C[C@H](Oc6cc(N7C8CCC7CN(c7cc(-c9ccccc9O)nnc7N)C8)ccn6)C5)CC4)CC3)no2)C(C)C)cc1`?
Activity (HCC2302 [1]): 71%; Activity (Mus musculus [2]): 47%; Activity [3]: Non-Toxic; Activity (Mus musculus [4]): 22%; TGI (HCC2302 [5]): Active; C0 at 24 h [6]: 12600 ng/mL; concentration at 96 h [7]: 483 ng/g; Activity (HCC2302 [8]): 72%; Activity (Mus musculus [9]): 84%; concentration at 24 h [10]: 71 nM; Activity (Mus musculus [11]): 99%; clearance [12]: 15 mL/min/kg; Activity (HCC2302 [13]): 25%; Activity (Mus musculus [14]): 82%; Activity (HCC2302 [15]): Active; Activity (Mus musculus [16]): 81%; Activity (Mus musculus [17]): 30%; Vd [18]: 6.3 L/kg; Vd [19]: 8.7 L/kg; GI50 (NCI-H1944): 0.58 nM; AUC(0-t) at 24 h [20]: 10200 ng·h/mL; Activity (HCC2302 [21]): 91%; inhibition in vivo at 30 mg/kg (HCC2302 [22]): > 65%; Activity [23]: Non-Toxic; AUC(0-t) at 24 h [24]: 30800 ng·h/mL; inhibition in vivo at 10 mg/kg (HCC2302 [25]): 1%; Activity (Mus musculus [26]): 97%; GI50 (Calu-6): 6.5 nM; C0 at 24 h [27]: 58000 ng/mL; inhibition in vivo at 20 mg/kg (HCC2302 [28]): 62%; half-life [29]: 8.9 h; half-life [30]: 6.6 h; Activity (HCC2302 [31]): 97%; Activity [32]: Non-Toxic; half-life [33]: 16 h; Activity (HCC2302 [34]): 98%; clearance [35]: 16 mL/min/kg; fraction unbound at 0.25 h [36]: 0.048; TGI (HCC2302 [37]): inactive; clearance [38]: 9.6 mL/min/kg
